Experiment [1] deals with T1, Son of sevenless homolog 1 (Homo sapiens) (UniProt Q07889).
T1 sequence (whole entry): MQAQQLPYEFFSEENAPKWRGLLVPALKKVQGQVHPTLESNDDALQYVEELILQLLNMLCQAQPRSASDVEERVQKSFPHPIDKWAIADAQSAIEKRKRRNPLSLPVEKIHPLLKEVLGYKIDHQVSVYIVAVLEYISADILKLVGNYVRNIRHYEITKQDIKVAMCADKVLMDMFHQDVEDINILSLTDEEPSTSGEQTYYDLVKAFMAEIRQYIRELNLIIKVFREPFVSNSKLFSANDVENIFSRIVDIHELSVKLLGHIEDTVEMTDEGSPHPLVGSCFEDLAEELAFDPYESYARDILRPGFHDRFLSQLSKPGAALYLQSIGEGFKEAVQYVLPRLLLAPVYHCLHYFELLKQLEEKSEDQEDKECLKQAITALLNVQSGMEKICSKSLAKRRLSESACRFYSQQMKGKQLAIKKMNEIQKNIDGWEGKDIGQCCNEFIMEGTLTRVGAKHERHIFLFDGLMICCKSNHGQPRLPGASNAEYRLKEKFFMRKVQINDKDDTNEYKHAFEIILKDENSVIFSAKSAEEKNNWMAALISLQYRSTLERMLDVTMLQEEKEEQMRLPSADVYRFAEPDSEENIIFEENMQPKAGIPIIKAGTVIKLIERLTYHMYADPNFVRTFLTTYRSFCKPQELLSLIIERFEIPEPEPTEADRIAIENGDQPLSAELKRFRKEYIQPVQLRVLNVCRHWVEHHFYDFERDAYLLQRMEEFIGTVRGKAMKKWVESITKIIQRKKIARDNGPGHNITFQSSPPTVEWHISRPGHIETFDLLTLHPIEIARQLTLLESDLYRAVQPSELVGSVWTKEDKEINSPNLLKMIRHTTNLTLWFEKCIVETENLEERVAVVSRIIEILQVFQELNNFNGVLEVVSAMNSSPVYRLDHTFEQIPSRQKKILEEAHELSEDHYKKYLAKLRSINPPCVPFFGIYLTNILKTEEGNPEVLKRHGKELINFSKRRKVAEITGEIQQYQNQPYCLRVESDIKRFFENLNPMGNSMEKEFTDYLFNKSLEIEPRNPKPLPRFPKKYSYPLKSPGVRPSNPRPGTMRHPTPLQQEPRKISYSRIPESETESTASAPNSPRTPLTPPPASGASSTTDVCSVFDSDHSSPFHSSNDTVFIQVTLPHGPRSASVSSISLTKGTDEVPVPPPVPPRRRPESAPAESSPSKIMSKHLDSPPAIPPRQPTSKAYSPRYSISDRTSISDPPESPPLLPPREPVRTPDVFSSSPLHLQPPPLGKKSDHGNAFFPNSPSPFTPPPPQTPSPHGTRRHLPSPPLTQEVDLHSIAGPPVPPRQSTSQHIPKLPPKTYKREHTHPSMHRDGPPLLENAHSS
The experiment is described as follows: Inhibition of SOS1 (unknown origin) at 500 nM.

In experiment [2] the target is T2, Son of sevenless homolog 1 (Homo sapiens, UniProt Q07889).
T2 sequence (Q07889 whole entry): T1 sequence (whole entry)
The experiment in a line: Inhibition of SOS1 (unknown origin).

The subject of another experiment is K562. The experiment is described as follows: Antiproliferative activity against human K562 cells assessed as inhibition of cell proliferation. It is filed as functional, cell-based.
For another experiment, the system named is NCI-H838. The experiment is described as follows: Antiproliferative activity against human NCI-H838 cells assessed as inhibition of cell proliferation. It is filed as functional, cell-based.
Experiment [3] has as its target Epidermal growth factor receptor (Homo sapiens) (UniProt P00533). The experiment in a line: Inhibition of wild type EGFR (unknown origin) at 5000 nM.

Sequence of Epidermal growth factor receptor (Homo sapiens) (P00533 whole entry): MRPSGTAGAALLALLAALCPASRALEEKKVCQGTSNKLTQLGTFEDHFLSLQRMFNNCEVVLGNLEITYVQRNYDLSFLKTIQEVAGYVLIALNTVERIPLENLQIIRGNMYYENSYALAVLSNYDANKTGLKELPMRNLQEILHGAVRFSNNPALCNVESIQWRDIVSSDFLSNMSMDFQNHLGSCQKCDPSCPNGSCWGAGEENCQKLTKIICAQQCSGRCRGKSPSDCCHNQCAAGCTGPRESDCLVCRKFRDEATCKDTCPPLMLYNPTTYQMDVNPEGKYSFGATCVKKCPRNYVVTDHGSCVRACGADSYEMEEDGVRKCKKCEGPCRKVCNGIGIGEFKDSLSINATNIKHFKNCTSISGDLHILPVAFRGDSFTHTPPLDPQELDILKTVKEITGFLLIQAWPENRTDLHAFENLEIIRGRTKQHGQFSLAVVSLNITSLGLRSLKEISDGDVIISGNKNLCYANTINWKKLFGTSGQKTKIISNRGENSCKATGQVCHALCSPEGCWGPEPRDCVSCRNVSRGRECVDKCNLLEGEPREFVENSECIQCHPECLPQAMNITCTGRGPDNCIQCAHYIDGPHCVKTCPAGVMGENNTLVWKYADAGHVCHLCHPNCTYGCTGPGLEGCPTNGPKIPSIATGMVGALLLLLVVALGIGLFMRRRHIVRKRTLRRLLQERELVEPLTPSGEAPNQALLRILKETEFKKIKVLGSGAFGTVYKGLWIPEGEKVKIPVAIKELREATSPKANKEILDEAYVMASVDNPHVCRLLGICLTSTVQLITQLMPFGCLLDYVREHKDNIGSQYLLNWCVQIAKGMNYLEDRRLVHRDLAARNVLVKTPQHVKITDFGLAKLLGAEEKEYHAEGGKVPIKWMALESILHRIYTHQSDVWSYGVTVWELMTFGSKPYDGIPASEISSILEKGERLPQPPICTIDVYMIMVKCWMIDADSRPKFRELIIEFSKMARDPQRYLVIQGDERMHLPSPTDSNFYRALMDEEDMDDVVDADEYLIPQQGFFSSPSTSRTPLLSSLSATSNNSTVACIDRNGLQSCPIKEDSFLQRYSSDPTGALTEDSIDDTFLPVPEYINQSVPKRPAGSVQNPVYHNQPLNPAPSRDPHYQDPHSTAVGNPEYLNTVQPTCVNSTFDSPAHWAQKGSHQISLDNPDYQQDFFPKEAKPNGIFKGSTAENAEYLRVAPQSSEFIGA

`Cc1nc(NC(C)c2ccc(-c3ccccc3CNCCO)s2)c2cc3c(cc2n1)OCCO3` (racemic) came in with an inhibition in experiment [1] of 89.1%.
`COc1cc2ncnc(NC(C)c3cc(-c4ccccc4C(N)=O)cs3)c2cc1OC` (racemic) gave an inhibition in experiment [1] of 33.7%.
The compound `COc1cc2ncnc(NC(C)c3cc(-c4ccccc4CNCCO)cs3)c2cc1OC` (racemic) returned an inhibition in experiment [1] of 97.5%. Also, the IC50 in experiment [2] is 18 nM; in the experiment on K562 it was 4050 nM.
In turn, `COc1cc2ncnc(NC(C)c3ccc(-c4ccccc4O)s3)c2cc1OC` (racemic) came in with an inhibition in experiment [1] of 43.9%.
For `CNCc1ccccc1-c1csc([C@@H](C)Nc2nc(C)nc3cc(OC)c(OC)cc23)c1` [BAY-293], the IC50 in the experiment on K562 amounted to 230 nM.
Regarding `COc1cc2ncnc(NC(C)c3ccc(-c4ccccc4C(N)=O)s3)c2cc1OC` (racemic), the inhibition in experiment [1] stood at 38.7%.
Regarding `CC(Nc1ncnc2cc3c(cc12)OCCO3)c1cc(-c2ccccc2CNCCO)cs1` (racemic), the inhibition in experiment [1] was found to be 80.2%.
Still for that read-out and setting: the value for `COc1cc2ncnc(NC(C)c3cc(-c4ccccc4O)cs3)c2cc1OC` (racemic) was 65.7%.
In experiment [1], `CNCc1ccccc1-c1csc(C(C)Nc2nc(C)nc3cc4c(cc23)OCCO4)c1` (racemic) gave an inhibition of 81.4%. For the same compound, the half-inhibitory concentration (IC50) is 27 nM in experiment [2] and 3490 nM in the experiment on K562.
As for `CC(Nc1ncnc2cc3c(cc12)OCCO3)c1ccc(-c2ccccc2CNCCO)s1` (racemic), in experiment [1], the inhibition came to 79.4%.
With `COc1cc2ncnc(NC(C)c3ccc(-c4ccccc4CNCCO)s3)c2cc1OC` (racemic), the inhibition amounted to 99.1% in experiment [1] and 20.7% in experiment [3]. For the same compound, the results for the 50% inhibitory concentration (IC50) (in experiment [2]; in the experiment on NCI-H838; with K562) were 8.5 nM, over 25000 nM and 890 nM, respectively.
On the same counts, the results for `CNCc1ccccc1-c1csc(C(C)Nc2ncnc3cc(OC)c(OC)cc23)c1` (racemic) are 99%, 38.1%, 20 nM, over 25000 nM and 2210 nM.
In turn, `CNCc1ccccc1-c1ccc(C(C)Nc2ncnc3cc4c(cc23)OCCO4)s1` (racemic) showed an inhibition in experiment [1] of 75.9%.
Same read-out and setting: the value for `COc1cc2ncnc(NC(C)c3ccc(-c4ccccc4N)s3)c2cc1OC` (racemic) was 75.2%; that for `CNCc1ccccc1-c1ccc(C(C)Nc2nc(C)nc3cc4c(cc23)OCCO4)s1` (racemic) was 77.3%.
`CNCc1ccccc1-c1csc(C(C)Nc2ncnc3cc4c(cc23)OCCO4)c1` (racemic): the inhibition in experiment [1] amounted to 78.5%; in experiment [3] it was 22.2%. Moreover, the IC50 in experiment [2] was 97 nM; in the experiment on NCI-H838 it was over 25000 nM; in the experiment with K562 it was 2870 nM.
For the compound `COc1cc2ncnc(NC(C)c3cc(-c4ccccc4N)cs3)c2cc1OC` (racemic), the inhibition in experiment [1] came to 61%.
Still for that read-out and setting: in the case of `CNCc1ccccc1-c1ccc(C(C)Nc2ncnc3cc(OC)c(OC)cc23)s1` (racemic) it was 98.7%.
Regarding `Cc1nc(NC(C)c2cc(-c3ccccc3CNCCO)cs2)c2cc3c(cc2n1)OCCO3` (racemic), in experiment [1], the inhibition amounted to 85.1%. Moreover, the values for the IC50 (in experiment [2]; in the experiment on K562) were 45 nM and 2480 nM, respectively.

In general, inhibition refers to the percentage by which the read-out fell short of the control. Read a low inhibition as a weak effect. A word on the IC50: it is the concentration that inhibits the measured activity by half.

The record behind these values is ChEMBL document CHEMBL5257075, “Design, synthesis and biological evaluation of quinazoline SOS1 inhibitors” (Bioorg Med Chem Lett, 2023).
